Ends that are not written are not given here. Peptide text beside a SMILES is read from it.
Test system: spontaneously hypertensive rats
Assay: not given
Design: method as in PMID 28102435
Details: cited from earlier work

Row | Molecule | Antihypertensive effect
1 | KVLPVPQ | effective

Test system: ACE
Assay: not given
Design: method as in AHTpin and BIOPEP-UWM databases
Details: Table S1, plant proteases without PREP; ref AHTpin and BIOPEP-UWM databases; cited from earlier work

Row | Molecule | pIC50
2 | Ala-Gly [AG] | 2.60
3 | Ala-His [AH] | 3.28
4 | Ala-Phe [AF] | 3.78
5 | Ala-Ser-Leu [ASL] | 3.99
6 | Ala-Tyr [AY] | 4.85
7 | Asn-Gly [NG] | 1.92
8 | Asn-Tyr [NY] | 4.49
9 | Asp-Gly [DG] | 5.67
10 | Asp-Tyr [DY] | 4.00
11 | Gln-Lys [QK] | 3.05
12 | Glu-Gly [EG] | 2.00
13 | Glu-Trp [EW] | 3.86
14 | Glu-Tyr [EY] | 5.57
15 | Ile-Arg [IR] | 3.16
16 | Ile-Leu | 4.26
17 | Ile-Phe [IF] | 4.18
18 | Ile-Tyr [IY] | 5.68
19 | Met-Gly [MG] | 2.32
20 | Met-Phe [MF] | 6.04
21 | Met-Tyr [MY] | 3.71
22 | Pro-Leu [PL] | 3.47
23 | Pro-Pro-Lys [PPK] | 3.00
24 | Ser-Gly [SG] | 2.07
25 | Ser-Phe [SF] | 3.89
26 | Ser-Thr [ST] | 5.39
27 | Thr-Phe [TF] | 4.74
28 | Trp-Leu [WL] | 4.52
29 | Val-Ala-Phe [VAF] | 4.45
30 | Val-Phe [VF] | 5.04

Same assay, conditions: Table S2, plant proteases with PREP; ref AHTpin and BIOPEP-UWM databases; cited from earlier work

Row | Molecule | pIC50
31 | Ala-Ile-Pro [AIP] | 3.46
32 | Ala-Pro [AP] | 4.54
33 | Ala-Val-Pro [AVP] | 3.47
34 | Lys-Pro [KP] | 4.66
35 | Thr-Pro [TP] | 3.54
36 | Val-Pro [VP] | 3.38

Test system: ACE
Assay: not given
Details: from porcine skeletal muscle hydrolysate; cited from earlier work

Row | Molecule | pIC50 (ACE inhibition)
37 | Met-Asn-Pro-Pro-Lys (MNPPK; printed: Met-Asn-Pro-Pro-Lys) | 3.02

Same assay, conditions: peptide derived from catfish myofibrillar protein; cited from earlier work

Row | Molecule | IC50 (ACE inhibition) [µg/mL]
38 | Ile-Glu-Lys-Pro (IEKP; printed: Ile-Glu-Lys-Pro) | 2.1

Same assay, conditions: β-casein fragment; cited from earlier work

Row | Molecule | ACE inhibitory activity in vitro
39 | KVLPVPQ | relatively weak

Molecular target: T1, ACE from rabbit lungs (Oryctolagus cuniculus, UniProt P12822)
T1 construct: The ACE from rabbit lungs; purchased Sigma Chemical Company (St. Louis, MO, USA); host or cells: rabbit lung tissue
T1 sequence (P12822 34-1310): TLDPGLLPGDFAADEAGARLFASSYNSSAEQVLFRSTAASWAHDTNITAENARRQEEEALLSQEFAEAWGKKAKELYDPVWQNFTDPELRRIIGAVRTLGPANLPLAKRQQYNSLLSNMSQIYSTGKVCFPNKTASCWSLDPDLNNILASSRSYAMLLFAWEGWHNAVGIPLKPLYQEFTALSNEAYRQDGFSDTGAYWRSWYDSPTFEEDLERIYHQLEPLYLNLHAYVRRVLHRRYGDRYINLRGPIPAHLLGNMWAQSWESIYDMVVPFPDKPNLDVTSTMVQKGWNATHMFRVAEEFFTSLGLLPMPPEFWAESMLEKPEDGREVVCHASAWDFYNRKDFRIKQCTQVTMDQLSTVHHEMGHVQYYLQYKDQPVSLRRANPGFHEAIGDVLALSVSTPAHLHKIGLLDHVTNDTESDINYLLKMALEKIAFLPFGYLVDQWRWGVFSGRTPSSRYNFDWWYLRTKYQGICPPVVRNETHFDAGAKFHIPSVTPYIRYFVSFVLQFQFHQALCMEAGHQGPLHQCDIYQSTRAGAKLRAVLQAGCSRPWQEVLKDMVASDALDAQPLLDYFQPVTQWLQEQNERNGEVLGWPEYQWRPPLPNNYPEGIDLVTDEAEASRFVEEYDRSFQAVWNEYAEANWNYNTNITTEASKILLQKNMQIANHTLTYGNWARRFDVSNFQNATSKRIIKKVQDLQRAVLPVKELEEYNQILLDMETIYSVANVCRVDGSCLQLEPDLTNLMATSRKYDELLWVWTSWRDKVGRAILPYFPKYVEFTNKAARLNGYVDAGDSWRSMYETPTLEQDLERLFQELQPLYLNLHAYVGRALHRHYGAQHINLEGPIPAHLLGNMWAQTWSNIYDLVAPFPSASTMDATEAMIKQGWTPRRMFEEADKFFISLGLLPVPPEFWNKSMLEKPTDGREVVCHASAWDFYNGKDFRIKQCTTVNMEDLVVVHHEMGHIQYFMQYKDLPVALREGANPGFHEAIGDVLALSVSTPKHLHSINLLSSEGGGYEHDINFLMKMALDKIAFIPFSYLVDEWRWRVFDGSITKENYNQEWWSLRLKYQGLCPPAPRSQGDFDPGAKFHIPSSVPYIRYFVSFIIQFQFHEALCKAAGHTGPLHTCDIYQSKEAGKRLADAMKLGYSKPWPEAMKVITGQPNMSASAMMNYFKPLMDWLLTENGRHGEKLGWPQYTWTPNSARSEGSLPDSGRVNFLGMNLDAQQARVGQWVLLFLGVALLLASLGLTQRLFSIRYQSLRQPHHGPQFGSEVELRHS
Assay: In vitro ACE inhibitory activity (HHL substrate, hippuric acid by UPLC)
Format: biochemical
Details: synthesized new peptides, read-out: pIC50 (ACE inhibition) (converted)
Source text: The tested peptides from t hmyosin heavy chain in Todarodes pacificus were provided by Anhui Guoping Pharmaceutical Co., Ltd. (Hefei, China). The ACE from rabbit lungs, hippuryl-histidyl-leucine (HHL), and hippuric acid (HA) were purchased from the Sigma Chemical Company (St. Louis, MO, USA). The solvents for high performance liquid chromatography (HPLC) including acetonitrile and trifluoroacetic acid (TFA) were provided by Merck (Darmstadt, Germany). All the other reagents and chemicals used were of analytical grade.
The ACE inhibitory activity analysis was performed based on Yu et al. with some modifications. HHL was dissolved in 100 mM sodium borate buffer (pH 8.3) to achieve a final concentration of 5.8 mM. A reaction mixture containing 50 μL of ACE solution (100 mU/mL) and 100 μL of sample were pre-incubated at 37 °C for 5 min. Subsequently, 150 μL HHL was added and the mixture was incubated at 37 °C for 60 min. The reaction was terminated by the addition of 200 μL of 0.1 M HCl. […] The amount of HA was determined via an ultra-performance liquid chromatography on a Waters Acquity UPLC BEH C18 column (1.7 μm, 2.1 mm × 100 mm). […] The degree of ACE inhibition was calculated as follows:(1) ACE inhibition activity (%)=A−B/A×100% where A was the HA concentration of a reaction containing ACE without peptide, B was the HA concentration of a reaction in the presence of ACE and peptide. […]

Row | IC50 [µM] | Molecule
40 | 38.9 | NCCCC[C@H](NC(=O)[C@@H]1CCCN1C(=O)[C@@H]1CCCN1C(=O)[C@@H](N)CC(N)=O)C(=O)O [NPPK, Asn-Pro-Pro-Lys] (H-NPPK-OH)
